For one test, the system named is A2780 cells. Description: In-vitro cell proliferation assay (SRB), A2780 cells. Format: cell-based. The conditions noted are these: Homo sapiens, A2780, 72 h, A2780 cells, 72 hours, SRB; read-out: A2780 IC50. The gist of the method: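 Read-out is SRB absorbance at 570 nm on TCA-fixed cells after 72 hours of compound treatment at 37° C. in 5% CO2. Background from a media-only plate is subtracted, and % inhibition is interpolated between two tested concentrations.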

The target of another test is T1, NAMPT (Homo sapiens, UniProt P43490).
T1 construct: His tag; host or cells: E. coli
Description: Biochemical inhibition assay: NAMPT enzymatic reaction, NMN quantified by mass spectrometry. To be noted: NAMPT enzymatic reaction; read-out: Biochem IC50. The procedure, abridged:
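Inhibition of E. coli-expressed His-tagged human NAMPT, measured as NMN formation by mass spectrometry after a 30 min room-temperature reaction containing 1 μM NAM, 100 μM PRPP and 2.5 mM ATP.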

Molecules are shown by their SMILES. pIC50: −log10 of the molar value.

T1 sequence (P43490 whole entry): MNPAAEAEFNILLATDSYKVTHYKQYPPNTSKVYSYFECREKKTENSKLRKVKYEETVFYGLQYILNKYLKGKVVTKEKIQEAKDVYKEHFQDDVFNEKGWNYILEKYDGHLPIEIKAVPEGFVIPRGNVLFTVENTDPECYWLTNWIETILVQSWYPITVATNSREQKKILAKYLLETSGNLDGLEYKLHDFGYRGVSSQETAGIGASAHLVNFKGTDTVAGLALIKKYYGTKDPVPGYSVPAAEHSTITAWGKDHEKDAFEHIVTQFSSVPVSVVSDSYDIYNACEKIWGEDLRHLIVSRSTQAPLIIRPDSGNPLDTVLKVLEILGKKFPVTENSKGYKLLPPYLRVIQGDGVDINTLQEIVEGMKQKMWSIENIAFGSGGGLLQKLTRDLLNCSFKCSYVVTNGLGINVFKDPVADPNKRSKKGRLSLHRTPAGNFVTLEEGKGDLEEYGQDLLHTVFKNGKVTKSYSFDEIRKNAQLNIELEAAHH

For orientation: pIC50 means the IC50 on a negative log10 scale, so that one unit is a factor of ten. With `O=C(NCc1ccc(S(=O)(=O)c2cccc(N3CCCCC3)c2)cc1)c1cc2cc(O)ccc2[nH]1`, the pIC50 in the test on A2780 cells is 5.00 to 6.00; on NAMPT, 6.00 to 7.00.
Taken in the same sequence, the figures for `O=C(NCc1ccc(S(=O)(=O)c2cccc(N3CCCC3)c2)cc1)c1cc2cc(O)ccc2[nH]1` were 6.00 to 7.00 and 6.84.
In the case of `CC(=O)c1ccccc1S(=O)(=O)c1ccc(CNC(=O)c2cnc3nccn3c2)cc1`, the pIC50 with A2780 cells is 8.09; at NAMPT, 8.60.
Taken in the same sequence, the figures for `CCCCOc1cc(F)ccc1S(=O)(=O)c1ccc(CNC(=O)c2cc3cnccc3[nH]2)cc1` were 8.26 and 7.51.
Take `CCCCOc1cc(F)ccc1S(=O)(=O)c1ccc(CNC(=O)c2cc3ccncc3s2)cc1`: the pIC50 with A2780 cells was 8.20; at NAMPT, 8.15.
As to `CCCCOc1cc(F)ccc1S(=O)(=O)c1ccc(CNC(=O)c2ccc3nccn3c2)cc1`, the pIC50 is 8.21 in the test with A2780 cells and 7.29 at NAMPT.
The like results for `CCCCOc1cc(F)ccc1S(=O)(=O)c1ccc(CNC(=O)c2cnc3nccn3c2)cc1` were, in that order, 7.13 and 8.14.
Taken in the same sequence, the figures for `CCCCOc1cc(F)ccc1S(=O)(=O)c1ccc(CNC(=O)c2cc3ccncc3o2)cc1` were 7.18 and 7.47.
As to `CCCCOc1ccc(Cl)cc1S(=O)(=O)c1ccc(CNC(=O)c2cc3ccncc3o2)cc1`, the pIC50 with A2780 cells is 7.18; on NAMPT it was 7.61.
Taken in the same sequence, the figures for `CCCCOc1ccc(Cl)cc1S(=O)(=O)c1ccc(CNC(=O)c2cc3ccncc3s2)cc1` were 8.00 and 8.14.
As for `CCCCOc1ccc(Cl)cc1S(=O)(=O)c1ccc(CNC(=O)c2ccc3nccn3c2)cc1`, the pIC50 is 8.10 in the test with A2780 cells and 7.96 at NAMPT.
The like results for `CCCCOc1ccc(Cl)cc1S(=O)(=O)c1ccc(CNC(=O)c2cc3cnccc3[nH]2)cc1` were, in that order, 8.08 and 7.81.
Taken in the same sequence, the figures for `CCCCOc1ccc(Cl)cc1S(=O)(=O)c1ccc(CNC(=O)c2cnc3nccn3c2)cc1` were 7.20 and 8.43.
Taken in the same sequence, the figures for `CCCCOc1cccc(F)c1S(=O)(=O)c1ccc(CNC(=O)c2cc3cnccc3[nH]2)cc1` were 8.25 and 8.06.
Consider `CCCCOc1cccc(F)c1S(=O)(=O)c1ccc(CNC(=O)c2cc3ccncc3o2)cc1`, for which the pIC50 in the test on A2780 cells is 7.16; on NAMPT, 7.59.
As for `O=C(NCc1ccc(S(=O)(=O)c2cccc(F)c2Cl)cc1)c1cc2ccncc2o1`, the pIC50 is 7.21 in the test on A2780 cells and 7.77 at NAMPT.
Taken in the same sequence, the figures for `O=C(NCc1ccc(S(=O)(=O)c2cccc(F)c2Cl)cc1)c1cnc2[nH]ncc2c1` were 6.00 to 7.00 and 7.13.
Consider `O=C(NCc1ccc(S(=O)(=O)c2ccc(F)cc2Cl)cc1)c1cc2ccncc2o1`, for which the pIC50 with A2780 cells is 7.20; at NAMPT it was 7.75.
Taken in the same sequence, the figures for `O=C(NCc1ccc(S(=O)(=O)c2ccc(F)cc2Cl)cc1)c1cnc2nccn2c1` were 6.00 to 7.00 and 7.84.
The like results for `COc1ccc(S(=O)(=O)c2ccc(CNC(=O)c3cnc4nccn4c3)cc2)c(Cl)c1` were, in that order, 7.17 and 8.19.
Turning to `COc1ccc(S(=O)(=O)c2ccc(CNC(=O)c3cc4cnccc4[nH]3)cc2)c(Cl)c1`, the pIC50 in the test with A2780 cells is 7.84; at NAMPT it was 8.03.
Taken in the same sequence, the figures for `COc1ccc(S(=O)(=O)c2ccc(CNC(=O)c3cc4ccncc4s3)cc2)c(Cl)c1` were 8.26 and 8.57.
The like results for `COc1ccc(S(=O)(=O)c2ccc(CNC(=O)c3ccc4nccn4c3)cc2)c(Cl)c1` were, in that order, 7.94 and 7.78.
Taken in the same sequence, the figures for `Cc1ccc(S(=O)(=O)c2ccc(CNC(=O)c3cc4ccncc4o3)cc2)c(Cl)c1` were 7.85 and 7.85.
Turning to `Cc1ccc(S(=O)(=O)c2ccc(CNC(=O)c3cnc4nccn4c3)cc2)c(Cl)c1`, the pIC50 with A2780 cells is 9.15; on NAMPT, 8.82.
The like results for `Cc1ccc(S(=O)(=O)c2ccc(CNC(=O)c3ccc4nccn4c3)cc2)c(Cl)c1` were, in that order, 9.05 and 8.96.
The like results for `Cc1ccc(S(=O)(=O)c2ccc(CNC(=O)c3cc4cnccc4[nH]3)cc2)c(Cl)c1` were, in that order, 8.57 and 8.10.
The like results for `Cc1ccc(S(=O)(=O)c2ccc(CNC(=O)c3cc4ccncc4s3)cc2)c(Cl)c1` were, in that order, 8.80 and 7.60.
On to `O=C(NCc1ccc(S(=O)(=O)c2cc(F)ccc2Cl)cc1)c1cc2ccncc2s1`, for which the pIC50 was 8.24 with A2780 cells and 8.38 on NAMPT.
On to `O=C(NCc1ccc(S(=O)(=O)c2cc(F)ccc2Cl)cc1)c1cc2ccncc2o1`, for which the pIC50 is 7.61 in the test with A2780 cells and 7.79 at NAMPT.
For the compound `O=C(NCc1ccc(S(=O)(=O)c2cc(F)ccc2Cl)cc1)c1cc2cnccc2[nH]1`, the pIC50 with A2780 cells is 7.92; at NAMPT, 7.55.
With `O=C(NCc1ccc(S(=O)(=O)c2cc(F)ccc2Cl)cc1)c1ccc2nccn2c1`, the pIC50 with A2780 cells was 8.20; on NAMPT, 7.68.
In the case of `O=C(NCc1ccc(S(=O)(=O)c2cc(F)ccc2Cl)cc1)c1cnc2nccn2c1`, the pIC50 with A2780 cells is 7.28; on NAMPT it was 7.98.
The like results for `Cc1ccc(Cl)c(S(=O)(=O)c2ccc(CNC(=O)c3cnc4nccn4c3)cc2)c1Cl` were, in that order, 7.25 and 8.14.
The like results for `Cc1ccc(Cl)c(S(=O)(=O)c2ccc(CNC(=O)c3cc4ccncc4o3)cc2)c1Cl` were, in that order, 7.79 and 7.97.
As for `O=C(NCc1ccc(S(=O)(=O)c2c(Cl)cccc2Cl)cc1)c1cnc2nccn2c1`, the pIC50 with A2780 cells was 6.00 to 7.00; on NAMPT, 7.87.
The like results for `O=C(NCc1ccc(S(=O)(=O)c2c(Cl)cccc2Cl)cc1)c1cc2ccncc2s1` were, in that order, 7.74 and 8.12.
Taken in the same sequence, the figures for `O=C(NCc1ccc(S(=O)(=O)c2c(Cl)cccc2Cl)cc1)c1ccc2nccn2c1` were 7.73 and 8.92.
As for `O=C(NCc1ccc(S(=O)(=O)c2c(Cl)cccc2Cl)cc1)c1cc2cnccc2[nH]1`, the pIC50 in the test on A2780 cells is 7.87; on NAMPT, 7.35.
Taken in the same sequence, the figures for `O=C(NCc1ccc(S(=O)(=O)c2c(Cl)cccc2Cl)cc1)c1cnc2[nH]ncc2c1` were 5.00 to 6.00 and 6.75.
Consider `O=C(NCc1ccc(S(=O)(=O)c2c(Cl)cccc2Cl)cc1)c1cc2ccncc2o1`, for which the pIC50 in the test on A2780 cells is 7.22; on NAMPT, 7.91.
Turning to `COc1cc(C)cc(OC)c1S(=O)(=O)c1ccc(CNC(=O)c2cnc3[nH]ncc3c2)cc1`, the pIC50 with A2780 cells and on NAMPT was 6.00 to 7.00 throughout.
On to `Cc1cccc(C)c1S(=O)(=O)c1ccc(CNC(=O)c2cc3ccncc3o2)cc1`, for which the pIC50 in the test with A2780 cells is 6.00 to 7.00; on NAMPT it was 7.49.
Regarding `COc1ccc(C(C)=O)cc1S(=O)(=O)c1ccc(CNC(=O)c2cc3ccncc3o2)cc1`, the pIC50 is 8.42 with A2780 cells and 8.14 at NAMPT.
Taken in the same sequence, the figures for `COc1ccc(C(C)=O)cc1S(=O)(=O)c1ccc(CNC(=O)c2cnc3nccn3c2)cc1` were 7.26 and 7.76.
As for `CCOc1ccc(Cl)cc1S(=O)(=O)c1ccc(CNC(=O)c2cnc3nccn3c2)cc1`, the pIC50 in the test with A2780 cells was 8.48; at NAMPT, 8.72.
As to `CCOc1ccc(Cl)cc1S(=O)(=O)c1ccc(CNC(=O)c2ccc3nccn3c2)cc1`, the values for the pIC50 with A2780 cells and at NAMPT were 9.30 and 8.66, respectively.
In the case of `CCOc1ccc(Cl)cc1S(=O)(=O)c1ccc(CNC(=O)c2cc3ccncc3s2)cc1`, the pIC50 was 9.30 in the test with A2780 cells and 8.57 on NAMPT.
With `COc1ccc(Cl)cc1S(=O)(=O)c1ccc(CNC(=O)c2cnc3nccn3c2)cc1`, the pIC50 is 8.21 in the test on A2780 cells and 8.26 at NAMPT.
The like results for `COc1ccc(Cl)cc1S(=O)(=O)c1ccc(CNC(=O)c2cnc3[nH]ncc3c2)cc1` were, in that order, 8.09 and 7.31.
Taken in the same sequence, the figures for `Cc1ccc(Cl)cc1S(=O)(=O)c1ccc(CNC(=O)c2cnc3nccn3c2)cc1` were 8.37 and 8.51.
As to `Cc1ccc(Cl)cc1S(=O)(=O)c1ccc(CNC(=O)c2cc3ccncc3s2)cc1`, the values for the pIC50 in the test with A2780 cells and on NAMPT were 8.18 and 8.32, respectively.
Consider `Cc1ccc(Cl)cc1S(=O)(=O)c1ccc(CNC(=O)c2cc3ccncc3o2)cc1`, for which the pIC50 in the test on A2780 cells is 8.11; on NAMPT, 8.24.
The like results for `CCCOc1ccc(Cl)cc1S(=O)(=O)c1ccc(CNC(=O)c2cc3cnccc3[nH]2)cc1` were, in that order, 8.92 and 8.12.
For `CCCOc1ccc(Cl)cc1S(=O)(=O)c1ccc(CNC(=O)c2cc3ccncc3o2)cc1`, the pIC50 in the test with A2780 cells is 8.03; at NAMPT, 8.10.
`CCCOc1ccc(Cl)cc1S(=O)(=O)c1ccc(CNC(=O)c2cc3ccncc3s2)cc1`: the pIC50 was 8.92 with A2780 cells and 8.24 on NAMPT.
With `COc1ccc(C#N)cc1S(=O)(=O)c1ccc(CNC(=O)c2ccc3nccn3c2)cc1`, the results for the pIC50 in the test with A2780 cells and at NAMPT were 7.92 and 7.84, respectively.
With `COc1ccc(F)cc1S(=O)(=O)c1ccc(CNC(=O)c2cc3ccncc3s2)cc1`, the results for the pIC50 with A2780 cells and on NAMPT were 9.10 and 8.70, respectively.
The like results for `COc1ccc(F)cc1S(=O)(=O)c1ccc(CNC(=O)c2cc3ccncc3o2)cc1` were, in that order, 7.91 and 8.66.
Taken in the same sequence, the figures for `COc1ccc(F)cc1S(=O)(=O)c1ccc(CNC(=O)c2cnc3[nH]ncc3c2)cc1` were 7.82 and 7.41.
The like results for `COc1ccc(F)cc1S(=O)(=O)c1ccc(CNC(=O)c2cnc3nccn3c2)cc1` were, in that order, 7.58 and 8.14.
`Cc1ccc(F)cc1S(=O)(=O)c1ccc(CNC(=O)c2cc3ccncc3o2)cc1`: the figures for the pIC50 in the test on A2780 cells and at NAMPT were 7.60 and 7.84, respectively.

Values taken from US12336981B2, “Compounds and compositions for the inhibition of NAMPT” (Valo Health, Inc., priority 2010, dated 2025).
